Test results: ChEMBL document CHEMBL1201862, “PubChem BioAssay data set” (2004)
Active and inactive are the calls of the source.

Legend:
Format in all cases: functional
[1] = molecular target: T1, Hexokinase-1 (Homo sapiens, UniProt P19367); assay: HK1 enzyme inhibition by HKDC1 hits, SAR follow-up, selectivity assay for HKDC1 inhibitor project, biochemical, set 2, resazurin fluorescence coupled readout (AID 588356)
T1 sequence (P19367 whole entry): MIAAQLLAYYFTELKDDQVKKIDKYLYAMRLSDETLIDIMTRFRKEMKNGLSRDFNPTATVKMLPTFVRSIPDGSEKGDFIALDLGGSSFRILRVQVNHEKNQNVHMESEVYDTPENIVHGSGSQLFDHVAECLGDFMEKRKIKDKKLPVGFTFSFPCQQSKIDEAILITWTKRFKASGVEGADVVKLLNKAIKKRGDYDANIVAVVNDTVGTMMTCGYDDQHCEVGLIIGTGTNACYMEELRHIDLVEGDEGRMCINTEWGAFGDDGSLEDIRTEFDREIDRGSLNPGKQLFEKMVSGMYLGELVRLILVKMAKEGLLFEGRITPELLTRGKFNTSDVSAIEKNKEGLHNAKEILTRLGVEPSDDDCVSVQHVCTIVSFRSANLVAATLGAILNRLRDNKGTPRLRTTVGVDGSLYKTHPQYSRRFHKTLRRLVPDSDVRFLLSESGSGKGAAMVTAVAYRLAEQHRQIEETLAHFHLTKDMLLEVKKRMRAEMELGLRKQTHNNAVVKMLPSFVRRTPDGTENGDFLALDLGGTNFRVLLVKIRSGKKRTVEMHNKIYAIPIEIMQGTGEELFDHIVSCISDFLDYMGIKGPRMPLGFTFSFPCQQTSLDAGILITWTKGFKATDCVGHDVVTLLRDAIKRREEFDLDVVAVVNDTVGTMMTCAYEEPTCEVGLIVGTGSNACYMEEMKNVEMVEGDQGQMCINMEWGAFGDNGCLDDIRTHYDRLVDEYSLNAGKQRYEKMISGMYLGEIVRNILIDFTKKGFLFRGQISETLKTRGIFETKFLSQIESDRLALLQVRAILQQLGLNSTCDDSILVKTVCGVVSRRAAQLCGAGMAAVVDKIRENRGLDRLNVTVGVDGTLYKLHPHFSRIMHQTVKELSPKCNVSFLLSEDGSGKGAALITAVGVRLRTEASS

[2] = molecular target: ALK tyrosine kinase receptor (Homo sapiens, UniProt Q9UM73);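 further: ALK tested as one member of a kinase panel screen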
[3] = molecular target: Tyrosine-protein kinase SYK (Homo sapiens, UniProt P43405)
[4] = molecular target: Tyrosine-protein kinase Srms (Homo sapiens, UniProt Q9H3Y6);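 further: SRMS measured as one member of a kinome-wide kinase profiling panel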
[5] = molecular target: 3-phosphoinositide-dependent protein kinase 1 (Homo sapiens, UniProt O15530);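 further: value comes from the Navigating the Kinome panel, PDPK1 member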
[6] = molecular target: Fibroblast growth factor receptor 3 (Homo sapiens, UniProt P22607)
[7] = molecular target: Serine/threonine-protein kinase BRSK1 (Homo sapiens, UniProt Q8TDC3);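 further: measured within a kinome-wide kinase panel, with the target listed as KIAA1811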
Sequence of Serine/threonine-protein kinase BRSK1 (Q8TDC3 whole entry): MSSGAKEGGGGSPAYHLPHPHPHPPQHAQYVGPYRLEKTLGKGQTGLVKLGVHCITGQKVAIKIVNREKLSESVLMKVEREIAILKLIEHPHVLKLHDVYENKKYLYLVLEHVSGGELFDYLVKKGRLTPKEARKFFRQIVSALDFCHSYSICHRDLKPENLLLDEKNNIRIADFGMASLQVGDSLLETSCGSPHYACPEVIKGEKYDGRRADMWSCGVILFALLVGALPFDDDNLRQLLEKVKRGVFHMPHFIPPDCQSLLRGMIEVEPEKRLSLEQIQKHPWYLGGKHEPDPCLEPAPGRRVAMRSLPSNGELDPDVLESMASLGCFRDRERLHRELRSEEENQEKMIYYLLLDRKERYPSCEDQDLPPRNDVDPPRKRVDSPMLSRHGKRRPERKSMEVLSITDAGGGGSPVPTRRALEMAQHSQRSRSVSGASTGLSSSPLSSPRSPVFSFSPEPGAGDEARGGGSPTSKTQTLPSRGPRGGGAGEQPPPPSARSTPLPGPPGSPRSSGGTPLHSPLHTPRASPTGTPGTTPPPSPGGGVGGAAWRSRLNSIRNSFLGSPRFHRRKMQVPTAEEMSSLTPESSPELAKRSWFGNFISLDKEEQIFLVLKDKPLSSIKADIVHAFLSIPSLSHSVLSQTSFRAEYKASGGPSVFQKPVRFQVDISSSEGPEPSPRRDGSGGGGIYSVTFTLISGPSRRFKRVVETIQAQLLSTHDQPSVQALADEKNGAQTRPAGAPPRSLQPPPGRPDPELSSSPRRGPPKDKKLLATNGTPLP

Sequence of Fibroblast growth factor receptor 3 (P22607 whole entry): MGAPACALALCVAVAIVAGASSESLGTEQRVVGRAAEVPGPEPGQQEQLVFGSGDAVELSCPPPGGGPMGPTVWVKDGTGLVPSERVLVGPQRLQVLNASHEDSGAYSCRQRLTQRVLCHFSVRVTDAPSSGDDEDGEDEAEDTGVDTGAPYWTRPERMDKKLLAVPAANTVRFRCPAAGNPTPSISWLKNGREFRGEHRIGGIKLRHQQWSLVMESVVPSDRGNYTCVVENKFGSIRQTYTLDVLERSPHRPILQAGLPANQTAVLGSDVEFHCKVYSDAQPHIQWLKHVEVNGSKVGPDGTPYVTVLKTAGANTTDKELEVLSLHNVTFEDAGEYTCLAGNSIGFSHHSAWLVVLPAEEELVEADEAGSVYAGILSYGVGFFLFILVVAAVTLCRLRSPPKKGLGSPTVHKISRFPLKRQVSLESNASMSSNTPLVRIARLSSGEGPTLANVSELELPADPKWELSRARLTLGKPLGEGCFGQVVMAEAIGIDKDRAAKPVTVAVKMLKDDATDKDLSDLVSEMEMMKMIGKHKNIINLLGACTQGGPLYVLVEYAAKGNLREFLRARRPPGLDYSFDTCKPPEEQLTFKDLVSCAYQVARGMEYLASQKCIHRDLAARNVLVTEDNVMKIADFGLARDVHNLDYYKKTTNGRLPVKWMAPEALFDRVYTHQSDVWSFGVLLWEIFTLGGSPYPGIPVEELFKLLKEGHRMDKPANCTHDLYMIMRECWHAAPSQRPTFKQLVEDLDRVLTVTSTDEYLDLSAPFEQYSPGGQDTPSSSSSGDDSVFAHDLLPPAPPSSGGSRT
Sequence of Tyrosine-protein kinase Srms (Q9H3Y6 whole entry): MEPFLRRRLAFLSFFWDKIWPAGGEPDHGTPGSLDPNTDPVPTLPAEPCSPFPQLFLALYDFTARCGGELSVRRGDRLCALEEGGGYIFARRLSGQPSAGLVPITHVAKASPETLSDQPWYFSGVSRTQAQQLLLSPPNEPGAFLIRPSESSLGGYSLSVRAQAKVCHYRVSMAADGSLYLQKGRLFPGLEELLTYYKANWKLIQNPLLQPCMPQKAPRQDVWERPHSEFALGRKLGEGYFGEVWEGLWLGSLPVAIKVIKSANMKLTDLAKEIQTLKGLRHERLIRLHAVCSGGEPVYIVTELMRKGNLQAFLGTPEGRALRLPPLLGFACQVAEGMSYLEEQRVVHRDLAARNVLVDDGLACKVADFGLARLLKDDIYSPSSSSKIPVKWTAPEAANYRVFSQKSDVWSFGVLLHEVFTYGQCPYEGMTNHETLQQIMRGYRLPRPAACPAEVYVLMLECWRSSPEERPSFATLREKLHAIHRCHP
Sequence of 3-phosphoinositide-dependent protein kinase 1 (O15530 whole entry): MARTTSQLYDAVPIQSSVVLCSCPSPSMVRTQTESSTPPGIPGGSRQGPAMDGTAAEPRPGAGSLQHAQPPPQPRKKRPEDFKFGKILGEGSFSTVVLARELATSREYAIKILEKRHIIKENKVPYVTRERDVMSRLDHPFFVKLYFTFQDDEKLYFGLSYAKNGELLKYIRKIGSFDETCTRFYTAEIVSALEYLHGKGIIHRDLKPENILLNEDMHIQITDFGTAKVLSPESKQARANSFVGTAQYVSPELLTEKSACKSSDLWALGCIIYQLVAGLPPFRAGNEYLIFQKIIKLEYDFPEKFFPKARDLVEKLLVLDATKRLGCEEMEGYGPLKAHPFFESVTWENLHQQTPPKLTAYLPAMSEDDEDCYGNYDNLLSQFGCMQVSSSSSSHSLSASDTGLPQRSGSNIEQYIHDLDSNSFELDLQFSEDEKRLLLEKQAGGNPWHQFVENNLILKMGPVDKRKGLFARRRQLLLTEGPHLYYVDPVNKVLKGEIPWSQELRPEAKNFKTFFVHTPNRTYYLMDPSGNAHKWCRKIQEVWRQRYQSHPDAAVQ
Sequence of ALK tyrosine kinase receptor (Q9UM73 whole entry): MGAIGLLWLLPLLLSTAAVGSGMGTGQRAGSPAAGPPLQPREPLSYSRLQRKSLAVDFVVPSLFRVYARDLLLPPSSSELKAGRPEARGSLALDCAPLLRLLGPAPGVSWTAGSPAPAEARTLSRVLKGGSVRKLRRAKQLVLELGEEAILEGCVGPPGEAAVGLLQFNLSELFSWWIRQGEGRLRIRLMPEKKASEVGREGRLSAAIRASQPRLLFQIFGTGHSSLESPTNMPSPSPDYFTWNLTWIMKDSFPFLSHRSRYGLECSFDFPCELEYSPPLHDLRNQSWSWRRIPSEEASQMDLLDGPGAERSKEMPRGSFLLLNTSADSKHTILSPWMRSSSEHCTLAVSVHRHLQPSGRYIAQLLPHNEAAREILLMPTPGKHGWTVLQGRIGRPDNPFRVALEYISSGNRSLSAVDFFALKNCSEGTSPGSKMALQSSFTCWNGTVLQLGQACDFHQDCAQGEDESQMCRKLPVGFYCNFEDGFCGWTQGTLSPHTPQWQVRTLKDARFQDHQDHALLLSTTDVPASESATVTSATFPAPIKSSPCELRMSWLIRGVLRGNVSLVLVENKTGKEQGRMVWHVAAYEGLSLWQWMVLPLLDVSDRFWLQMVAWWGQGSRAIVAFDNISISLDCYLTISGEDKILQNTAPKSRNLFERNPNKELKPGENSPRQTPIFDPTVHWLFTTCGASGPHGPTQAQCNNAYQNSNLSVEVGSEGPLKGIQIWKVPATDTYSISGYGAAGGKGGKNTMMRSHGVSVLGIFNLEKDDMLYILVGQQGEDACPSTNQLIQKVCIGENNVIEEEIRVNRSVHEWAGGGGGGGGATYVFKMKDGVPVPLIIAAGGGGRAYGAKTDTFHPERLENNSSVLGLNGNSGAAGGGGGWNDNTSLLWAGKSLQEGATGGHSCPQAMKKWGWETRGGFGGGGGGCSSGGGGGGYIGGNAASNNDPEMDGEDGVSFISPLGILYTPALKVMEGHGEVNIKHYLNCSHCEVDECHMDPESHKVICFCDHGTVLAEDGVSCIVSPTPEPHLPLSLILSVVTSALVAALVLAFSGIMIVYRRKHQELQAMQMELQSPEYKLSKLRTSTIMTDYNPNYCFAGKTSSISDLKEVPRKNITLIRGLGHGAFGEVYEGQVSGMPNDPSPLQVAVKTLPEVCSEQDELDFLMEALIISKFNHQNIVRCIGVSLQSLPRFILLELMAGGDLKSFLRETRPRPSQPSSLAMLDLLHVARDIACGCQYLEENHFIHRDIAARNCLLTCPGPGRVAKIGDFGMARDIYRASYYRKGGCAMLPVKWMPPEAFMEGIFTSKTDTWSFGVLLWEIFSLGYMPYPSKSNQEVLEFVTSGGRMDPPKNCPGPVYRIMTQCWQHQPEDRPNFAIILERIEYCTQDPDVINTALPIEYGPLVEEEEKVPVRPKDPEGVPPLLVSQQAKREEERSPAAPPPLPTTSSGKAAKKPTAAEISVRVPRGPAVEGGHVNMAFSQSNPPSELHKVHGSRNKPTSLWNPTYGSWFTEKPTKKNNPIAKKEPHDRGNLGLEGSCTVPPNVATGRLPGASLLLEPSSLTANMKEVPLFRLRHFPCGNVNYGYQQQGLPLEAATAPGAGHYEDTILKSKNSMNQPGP

CC(=O)NC1C(=O)N(CCN2CCOCC2)c2ccc(F)cc21 (configuration not stated)
IC50 [1]: > 80000 nM (inactive)

Cc1n[nH]c2ccc(-c3cncc(OCC(N)Cc4cccc(Cl)c4)c3)cc12 (configuration not stated)
Ki [2]: > 1260 nM (inactive)
Ki [3]: > 1580 nM (inactive)
Ki [4]: > 1580 nM (inactive)
Ki [5]: 2000 nM (active)
Ki [6]: > 2000 nM (inactive)
Ki [7]: 1580 nM (active)
